Assay results taken from ChEMBL document CHEMBL1949655, “Neomycin-phenolic conjugates: polycationic amphiphiles with broad-spectrum antibacterial activity, low hemolytic activity and weak serum protein binding” (Bioorg Med Chem Lett, 2012).
Values after ≈ are worked out from the molar mass of the structure shown.

What was measured:
Staphylococcus aureus [1] = experiment: microbe, parasite or virus in culture; format: functional; details: ATCC 29213, 24 h
Description: Antibacterial activity against Staphylococcus aureus ATCC 29213 after 24 hrs by macrobroth dilution method

Staphylococcus aureus [2] = experiment: microbe, parasite or virus in culture; format: functional; details: ATCC 33592, 24 h
Description: Antibacterial activity against methicillin-resistant Staphylococcus aureus ATCC 33592 after 24 hrs by macrobroth dilution method

[3] = test system: Staphylococcus epidermidis; experiment: microbe, parasite or virus in culture; format: functional; details: Staphylococcus epidermidis, 81388, 24 h
Description: Antibacterial activity against methicillin-susceptible Staphylococcus epidermidis 81388 after 24 hrs by macrobroth dilution method

[4] = test system: Staphylococcus epidermidis; experiment: microbe, parasite or virus in culture; format: functional; details: isolate CAN-ICU61589, 24 h
Description: Antibacterial activity against methicillin-resistant Staphylococcus epidermidis isolate CAN-ICU 61589 after 24 hrs by macrobroth dilution method

Enterococcus faecalis [5] = experiment: microbe, parasite or virus in culture; format: functional; details: ATCC 29212, 24 h
Description: Antibacterial activity against Enterococcus faecalis ATCC 29212 after 24 hrs by macrobroth dilution method

Enterococcus faecium [6] = experiment: microbe, parasite or virus in culture; format: functional; details: ATCC 27270, 24 h
Description: Antibacterial activity against Enterococcus faecium ATCC 27270 after 24 hrs by macrobroth dilution method

Streptococcus pneumoniae [7] = experiment: microbe, parasite or virus in culture; format: functional; details: ATCC 49619, 24 h
Description: Antibacterial activity against Streptococcus pneumoniae ATCC 49619 after 24 hrs by macrobroth dilution method

Escherichia coli [8] = experiment: microbe, parasite or virus in culture; format: functional; details: ATCC 25922, 24 h
Description: Antibacterial activity against Escherichia coli ATCC 25922 after 24 hrs by macrobroth dilution method

Escherichia coli [9] = experiment: microbe, parasite or virus in culture; format: functional; details: isolate CAN-ICU 61714, 24 h
Description: Antibacterial activity against Escherichia coli isolate CAN-ICU 61714 after 24 hrs by macrobroth dilution method

Escherichia coli [10] = experiment: microbe, parasite or virus in culture; format: functional; details: isolate CAN-ICU 63074, 24 h
Description: Antibacterial activity against Escherichia coli isolate CAN-ICU 63074 after 24 hrs by macrobroth dilution method

Pseudomonas aeruginosa [11] = experiment: microbe, parasite or virus in culture; format: functional; details: ATCC 27853, 24 h
Description: Antibacterial activity against Pseudomonas aeruginosa ATCC 27853 after 24 hrs by macrobroth dilution method

Pseudomonas aeruginosa [12] = experiment: microbe, parasite or virus in culture; format: functional; details: isolate CAN-ICU 62308, 24 h
Description: Antibacterial activity against Pseudomonas aeruginosa isolate CAN-ICU 62308 after 24 hrs by macrobroth dilution method

[13] = test system: Stenotrophomonas maltophilia; experiment: microbe, parasite or virus in culture; format: functional; details: isolate CAN-ICU 62584, 24 h
Description: Antibacterial activity against Stenotrophomonas maltophilia isolate CAN-ICU 62584 after 24 hrs by macrobroth dilution method

Acinetobacter baumannii [14] = experiment: microbe, parasite or virus in culture; format: functional; details: isolate CAN-ICU 63169, 24 h
Description: Antibacterial activity against Acinetobacter baumannii 63169 isolate CAN-ICU after 24 hrs by macrobroth dilution method

Klebsiella pneumoniae [15] = experiment: microbe, parasite or virus in culture; format: functional; details: ATCC 13883, 24 h
Description: Antibacterial activity against Klebsiella pneumoniae ATCC 13883 after 24 hrs by macrobroth dilution method

Staphylococcus aureus [16] = experiment: microbe, parasite or virus in culture; format: functional; details: ATCC 29213, 24 h; remark: listed apart in the source
Description: Antibacterial activity against Staphylococcus aureus ATCC 29213 after 24 hrs by macrobroth dilution method in the presence of bovine serum albumin

Staphylococcus aureus [17] = experiment: microbe, parasite or virus in culture; format: functional; details: ATCC 33592, 24 h; remark: listed apart in the source
Description: Antibacterial activity against methicillin-resistant Staphylococcus aureus ATCC 33592 after 24 hrs by macrobroth dilution method in the presence of bovine serum albumin

[18] = test system: Staphylococcus epidermidis; experiment: microbe, parasite or virus in culture; format: functional; details: Staphylococcus epidermidis, 81388, 24 h; remark: listed apart in the source
Description: Antibacterial activity against methicillin-susceptible Staphylococcus epidermidis 81388 after 24 hrs by macrobroth dilution method in the presence of bovine serum albumin

[19] = test system: Staphylococcus epidermidis; experiment: microbe, parasite or virus in culture; format: functional, isolate CAN-ICU 61589; details: isolate CAN-ICU61589, 24 h
Description: Antibacterial activity against methicillin-resistant Staphylococcus epidermidis isolate CAN-ICU 61589 after 24 hrs by macrobroth dilution method in the presence of bovine serum albumin

Enterococcus faecalis [20] = experiment: microbe, parasite or virus in culture; format: functional; details: ATCC 29212, 24 h; remark: listed apart in the source
Description: Antibacterial activity against Enterococcus faecalis ATCC 29212 after 24 hrs by macrobroth dilution method in the presence of bovine serum albumin

Enterococcus faecium [21] = experiment: microbe, parasite or virus in culture; format: functional; details: ATCC 27270, 24 h; remark: listed apart in the source
Description: Antibacterial activity against Enterococcus faecium ATCC 27270 after 24 hrs by macrobroth dilution method in the presence of bovine serum albumin

Streptococcus pneumoniae [22] = experiment: microbe, parasite or virus in culture; format: functional; details: ATCC 49619, 24 h; remark: listed apart in the source
Description: Antibacterial activity against Streptococcus pneumoniae ATCC 49619 after 24 hrs by macrobroth dilution method in the presence of bovine serum albumin

Escherichia coli [23] = experiment: microbe, parasite or virus in culture; format: functional; details: ATCC 25922, 24 h; remark: listed apart in the source
Description: Antibacterial activity against Escherichia coli ATCC 25922 after 24 hrs by macrobroth dilution method in the presence of bovine serum albumin

Escherichia coli [24] = experiment: microbe, parasite or virus in culture; format: functional; details: isolate CAN-ICU 61714, 24 h; remark: listed apart in the source
Description: Antibacterial activity against Escherichia coli isolate CAN-ICU 61714 after 24 hrs by macrobroth dilution method in the presence of bovine serum albumin

Escherichia coli [25] = experiment: microbe, parasite or virus in culture; format: functional; details: isolate CAN-ICU 63074, 24 h; remark: listed apart in the source
Description: Antibacterial activity against Escherichia coli isolate CAN-ICU 63074 after 24 hrs by macrobroth dilution method in the presence of bovine serum albumin

Pseudomonas aeruginosa [26] = experiment: microbe, parasite or virus in culture; format: functional; details: ATCC 27853, 24 h; remark: listed apart in the source
Description: Antibacterial activity against Pseudomonas aeruginosa ATCC 27853 after 24 hrs by macrobroth dilution method in the presence of bovine serum albumin

Pseudomonas aeruginosa [27] = experiment: microbe, parasite or virus in culture; format: functional; details: isolate CAN-ICU 62308, 24 h; remark: listed apart in the source
Description: Antibacterial activity against Pseudomonas aeruginosa isolate CAN-ICU 62308 after 24 hrs by macrobroth dilution method in the presence of bovine serum albumin

[28] = test system: Stenotrophomonas maltophilia; experiment: microbe, parasite or virus in culture; format: functional; details: isolate CAN-ICU 62584, 24 h; remark: listed apart in the source
Description: Antibacterial activity against Stenotrophomonas maltophilia isolate CAN-ICU 62584 after 24 hrs by macrobroth dilution method in the presence of bovine serum albumin

Acinetobacter baumannii [29] = experiment: microbe, parasite or virus in culture; format: functional; details: isolate CAN-ICU 63169, 24 h; remark: listed apart in the source
Description: Antibacterial activity against Acinetobacter baumannii isolate CAN-ICU 63169 after 24 hrs by macrobroth dilution method in the presence of bovine serum albumin

Klebsiella pneumoniae [30] = experiment: microbe, parasite or virus in culture; format: functional; details: ATCC 13883, 24 h; remark: listed apart in the source
Description: Antibacterial activity against Klebsiella pneumoniae ATCC 13883 after 24 hrs by macrobroth dilution method in the presence of bovine serum albumin

[31] = Aqueous solubility of the compound; format: physicochemical; details: buffer
[32] = Toxicity in human erythrocytes assessed as hemolysis at 100 ug/ml by spectrophotometry; details: at 100 µg/mL

| Compound | MIC90 (Staphylococcus aureus [1]) [µg/mL] | MIC90 (Staphylococcus aureus [2]) [µg/mL] | MIC90 [3] [µg/mL] | MIC90 [4] [µg/mL] | MIC90 (Enterococcus faecalis [5]) [µg/mL] | MIC90 (Enterococcus faecium [6]) [µg/mL] | MIC90 (Streptococcus pneumoniae [7]) [µg/mL] | MIC90 (Escherichia coli [8]) [µg/mL] | MIC90 (Escherichia coli [9]) [µg/mL] | MIC90 (Escherichia coli [10]) [µg/mL] | MIC90 (Pseudomonas aeruginosa [11]) [µg/mL] | MIC90 (Pseudomonas aeruginosa [12]) [µg/mL] | MIC90 [13] [µg/mL] | MIC90 (Acinetobacter baumannii [14]) [µg/mL] | MIC90 (Klebsiella pneumoniae [15]) [µg/mL] | MIC90 (Staphylococcus aureus [16]) [µg/mL] | MIC90 (Staphylococcus aureus [17]) [µg/mL] | MIC90 [18] [µg/mL] | MIC90 [19] [µg/mL] | MIC90 (Enterococcus faecalis [20]) [µg/mL] | further results |
| --- | --- | --- | --- | --- | --- | --- | --- | --- | --- | --- | --- | --- | --- | --- | --- | --- | --- | --- | --- | --- | --- |
| Cc1cc(O)cc(C)c1Cl [CHLOROXYLENOL] | 32 (≈ 204 µM) | 64 (≈ 409 µM) | 32 (≈ 204 µM) | 16 (≈ 102 µM) | 256 (≈ 1630 µM) | 256 (≈ 1630 µM) | 128 (≈ 817 µM) | 256 (≈ 1630 µM) | 256 (≈ 1630 µM) | 256 (≈ 1630 µM) | 512 (≈ 3270 µM) | 256 (≈ 1630 µM) | 128 (≈ 817 µM) | 128 (≈ 817 µM) | 256 (≈ 1630 µM) | 512 (≈ 3270 µM) | 512 (≈ 3270 µM) | 512 (≈ 3270 µM) | 512 (≈ 3270 µM) | > 512 | MIC90 (Enterococcus faecium [21]): > 512 µg/mL; MIC90 (Streptococcus pneumoniae [22]): > 512 µg/mL; MIC90 (Escherichia coli [23]): > 512 µg/mL; MIC90 (Escherichia coli [24]): > 512 µg/mL; MIC90 (Escherichia coli [25]): > 512 µg/mL; MIC90 (Pseudomonas aeruginosa [26]): > 512 µg/mL; MIC90 (Pseudomonas aeruginosa [27]): > 512 µg/mL; MIC90 [28]: > 512 µg/mL; MIC90 (Acinetobacter baumannii [29]): > 512 µg/mL; MIC90 (Klebsiella pneumoniae [30]): > 512 µg/mL |
| CC(C)(C)CC(C)(C)c1ccc(O)c(Cc2ccc(Cl)cc2Cl)c1 [CLOFOCTOL] | – | – | – | – | – | – | – | – | – | – | – | – | – | – | – | – | – | – | – | – | solubility [31]: Insoluble |
| NC[C@@H]1O[C@H](O[C@H]2[C@@H](O)[C@H](O[C@@H]3[C@@H](O)[C@H](N)C[C@H](N)[C@H]3O[C@H]3O[C@H](CN)[C@@H](O)[C@H](O)[C@H]3N)O[C@@H]2CO)[C@H](N)[C@@H](O)[C@@H]1O.O.O=S(=O)(O)O [NEOMYCIN TRISULFATE HYDRATE] | 1 | 256 | 0.5 | ≤ 0.25 | 16 | 4 | 32 | 4 | 1 | 8 | 512 | 256 | > 512 | 64 | 0.25 | 0.5 | 128 | 0.5 | ≤ 0.25 | 16 | MIC90 (Enterococcus faecium [21]): 4 µg/mL; MIC90 (Streptococcus pneumoniae [22]): 8 µg/mL; MIC90 (Escherichia coli [23]): 0.25 µg/mL; MIC90 (Escherichia coli [24]): 1 µg/mL; MIC90 (Escherichia coli [25]): 16 µg/mL; MIC90 (Pseudomonas aeruginosa [26]): 256 µg/mL; MIC90 (Pseudomonas aeruginosa [27]): 256 µg/mL; MIC90 [28]: > 512 µg/mL; MIC90 (Acinetobacter baumannii [29]): 32 µg/mL; MIC90 (Klebsiella pneumoniae [30]): ≤ 0.25 µg/mL; hemolysis at 100 ug/ml [32]: 0.69% |
| Oc1cc(Cl)ccc1Oc1ccc(Cl)cc1Cl [TRICLOSAN] | 0.5 (≈ 1.73 µM) | ≤ 0.25 | 1 (≈ 3.45 µM) | ≤ 0.25 | 8 (≈ 27.6 µM) | 16 (≈ 55.3 µM) | 128 (≈ 442 µM) | ≤ 0.25 | 1 (≈ 3.45 µM) | 1 (≈ 3.45 µM) | > 512 | 64 (≈ 221 µM) | 512 (≈ 1770 µM) | 8 (≈ 27.6 µM) | 1 (≈ 3.45 µM) | 0.5 (≈ 1.73 µM) | 1 (≈ 3.45 µM) | 1 (≈ 3.45 µM) | 1 (≈ 3.45 µM) | 512 (≈ 1770 µM) | MIC90 (Enterococcus faecium [21]): 512 µg/mL (≈ 1770 µM); MIC90 (Streptococcus pneumoniae [22]): 256 µg/mL (≈ 884 µM); MIC90 (Escherichia coli [23]): 16 µg/mL (≈ 55.3 µM); MIC90 (Escherichia coli [24]): 16 µg/mL (≈ 55.3 µM); MIC90 (Escherichia coli [25]): 64 µg/mL (≈ 221 µM); MIC90 (Pseudomonas aeruginosa [26]): > 512 µg/mL; MIC90 (Pseudomonas aeruginosa [27]): > 512 µg/mL; MIC90 [28]: > 512 µg/mL; MIC90 (Acinetobacter baumannii [29]): 128 µg/mL (≈ 442 µM); MIC90 (Klebsiella pneumoniae [30]): 32 µg/mL (≈ 111 µM) |
